Publication PMC10373102 (Molecular microbiology, 2011)

Molecular target: T1, CtdQ; acylating aldehyde dehydrogenase (ADA) (Acidovorax sp. JS42, UniProt A1W2K2)
T1 sequence (A1W2K2 1-302): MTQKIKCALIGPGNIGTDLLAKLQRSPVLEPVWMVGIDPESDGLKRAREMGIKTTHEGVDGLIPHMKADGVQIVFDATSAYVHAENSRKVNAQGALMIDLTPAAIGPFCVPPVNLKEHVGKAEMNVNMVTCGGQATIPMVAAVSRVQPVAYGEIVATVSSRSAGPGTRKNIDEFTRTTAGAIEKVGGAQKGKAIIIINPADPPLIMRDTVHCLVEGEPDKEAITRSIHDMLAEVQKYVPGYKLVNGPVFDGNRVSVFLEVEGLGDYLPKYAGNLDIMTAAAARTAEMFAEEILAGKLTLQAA
Assay: enzyme assay in extract of E. coli expressing ctdQ
Format: biochemical
Details: details in SI

SMILES | enzyme assay in extract of E. coli expressing ctdQ
CC=O [acetaldehyde] | the enzyme was equally active with acetaldehyde and propionaldehyde
CCC=O [propionaldehyde] | the enzyme was equally active with acetaldehyde and propionaldehyde
